{
  "source": "paper PMC7180948",
  "about": "“New Insights into 4-Anilinoquinazolines as Inhibitors of Cardiac Troponin I–Interacting Kinase (TNNi3K)” (Molecules, 2020)",
  "test_in_all_cases": "biochemical",
  "set-up_in_all_cases": "KINOMEscan competition binding panel (Eurofins DiscoverX), single concentration, % inhibition",
  "conditions_in_all_cases": "read-out: 7 at 1 µM % inhibition",
  "key": {"CDK2": {"target": "CDK2 (Homo sapiens, UniProt P24941)", "procedure": "(§1) KinomeScan® Assay on 7 and 15 was performed as previously described by EuroFins DiscoverX [24]. GSK114 (7) and 15 were submitted for a KINOMEscan® assay to explore the selectivity profile across >400 human kinases at a compound concentration of 1 µM. […] GSK114 (7) is a narrow-spectrum TNNi3K inhibitor but has some potent off-targets including GAK which has been previously reported for this chemotype. […] If utilized together this set of compounds could be useful to investigate TNNi3K biology."}, "ARK5": {"target": "T1, ARK5 (Homo sapiens, UniProt O60285)", "T1 construct": "gene NUAK1", "procedure": "as §1"}, "MAP4K3": {"target": "MAP4K3 (Homo sapiens, UniProt Q8IVH8)", "procedure": "as §1"}, "MAP4K2": {"target": "MAP4K2 (Homo sapiens, UniProt Q12851)", "procedure": "as §1"}, "MAP3K15": {"target": "MAP3K15 (Homo sapiens, UniProt Q6ZN16)", "sequence (Q6ZN16 whole entry)": "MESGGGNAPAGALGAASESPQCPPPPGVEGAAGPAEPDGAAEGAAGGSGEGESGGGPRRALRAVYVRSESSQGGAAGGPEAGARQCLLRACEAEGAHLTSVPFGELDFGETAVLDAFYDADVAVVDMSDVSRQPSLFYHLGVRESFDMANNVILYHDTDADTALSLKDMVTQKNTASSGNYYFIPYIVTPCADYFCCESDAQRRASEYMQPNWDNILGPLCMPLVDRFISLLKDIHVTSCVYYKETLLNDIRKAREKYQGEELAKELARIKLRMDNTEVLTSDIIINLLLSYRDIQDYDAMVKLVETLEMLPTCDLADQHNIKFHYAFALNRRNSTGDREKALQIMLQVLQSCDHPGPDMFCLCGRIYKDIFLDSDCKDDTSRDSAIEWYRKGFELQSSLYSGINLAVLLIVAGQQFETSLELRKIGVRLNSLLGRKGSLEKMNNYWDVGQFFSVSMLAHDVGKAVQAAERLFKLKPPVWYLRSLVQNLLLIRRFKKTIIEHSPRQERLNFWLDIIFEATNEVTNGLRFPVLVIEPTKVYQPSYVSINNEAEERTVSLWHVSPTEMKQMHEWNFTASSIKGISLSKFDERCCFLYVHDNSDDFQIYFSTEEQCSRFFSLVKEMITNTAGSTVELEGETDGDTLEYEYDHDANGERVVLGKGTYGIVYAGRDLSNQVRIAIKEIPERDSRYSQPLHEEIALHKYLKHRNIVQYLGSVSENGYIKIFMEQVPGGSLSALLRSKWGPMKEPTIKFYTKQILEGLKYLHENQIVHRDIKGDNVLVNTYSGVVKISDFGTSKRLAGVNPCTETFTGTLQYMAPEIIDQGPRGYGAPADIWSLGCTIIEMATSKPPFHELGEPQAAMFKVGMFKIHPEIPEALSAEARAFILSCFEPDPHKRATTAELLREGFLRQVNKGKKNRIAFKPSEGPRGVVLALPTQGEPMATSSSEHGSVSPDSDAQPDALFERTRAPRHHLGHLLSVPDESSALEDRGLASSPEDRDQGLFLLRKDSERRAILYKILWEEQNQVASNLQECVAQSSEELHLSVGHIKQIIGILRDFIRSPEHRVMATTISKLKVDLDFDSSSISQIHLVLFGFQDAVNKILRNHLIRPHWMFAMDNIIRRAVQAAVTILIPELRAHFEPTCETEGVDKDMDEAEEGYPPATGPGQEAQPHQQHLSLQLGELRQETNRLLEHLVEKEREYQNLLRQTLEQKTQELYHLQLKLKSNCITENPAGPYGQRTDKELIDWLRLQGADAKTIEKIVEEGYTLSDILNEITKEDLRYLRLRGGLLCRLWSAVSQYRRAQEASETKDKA", "procedure": "as §1"}, "S6K1": {"target": "T2, S6K1 (Homo sapiens, UniProt P23443)", "T2 construct": "gene RPS6KB1", "procedure": "as §1"}, "PRKCQ": {"target": "PRKCQ (Homo sapiens, UniProt Q04759)", "sequence (Q04759 whole entry)": "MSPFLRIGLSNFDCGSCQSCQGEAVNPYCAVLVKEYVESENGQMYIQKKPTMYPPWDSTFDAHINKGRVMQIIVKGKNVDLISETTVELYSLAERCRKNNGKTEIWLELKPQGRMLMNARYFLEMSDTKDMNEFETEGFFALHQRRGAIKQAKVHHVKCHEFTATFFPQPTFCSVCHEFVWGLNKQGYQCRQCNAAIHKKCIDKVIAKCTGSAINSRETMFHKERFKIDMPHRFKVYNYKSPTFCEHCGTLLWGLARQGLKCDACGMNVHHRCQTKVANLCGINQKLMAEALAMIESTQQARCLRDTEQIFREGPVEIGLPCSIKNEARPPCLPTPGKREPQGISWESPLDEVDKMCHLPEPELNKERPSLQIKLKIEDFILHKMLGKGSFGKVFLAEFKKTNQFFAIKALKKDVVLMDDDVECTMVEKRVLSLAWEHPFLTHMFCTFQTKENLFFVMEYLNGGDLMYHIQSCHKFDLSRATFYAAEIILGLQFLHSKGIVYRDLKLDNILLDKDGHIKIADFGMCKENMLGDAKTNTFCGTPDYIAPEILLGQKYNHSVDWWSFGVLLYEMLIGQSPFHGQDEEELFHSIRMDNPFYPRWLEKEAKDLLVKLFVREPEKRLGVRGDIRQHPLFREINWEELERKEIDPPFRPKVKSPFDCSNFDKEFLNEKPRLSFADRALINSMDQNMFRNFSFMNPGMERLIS", "procedure": "as §1"}, "CSNK1A1L": {"target": "CSNK1A1L (Homo sapiens, UniProt Q8N752)", "sequence (Q8N752 whole entry)": "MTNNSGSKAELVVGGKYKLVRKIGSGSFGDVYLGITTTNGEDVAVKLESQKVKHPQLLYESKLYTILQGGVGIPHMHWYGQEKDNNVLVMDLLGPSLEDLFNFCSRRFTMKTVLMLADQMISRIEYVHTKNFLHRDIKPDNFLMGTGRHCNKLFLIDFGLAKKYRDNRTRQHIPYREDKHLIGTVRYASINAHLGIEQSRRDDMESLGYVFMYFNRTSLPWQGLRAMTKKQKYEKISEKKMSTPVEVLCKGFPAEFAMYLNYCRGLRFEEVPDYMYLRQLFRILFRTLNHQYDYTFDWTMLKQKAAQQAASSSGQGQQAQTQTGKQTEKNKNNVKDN", "procedure": "as §1"}, "CDK8": {"target": "CDK8 (Homo sapiens, UniProt P49336)", "procedure": "as §1"}, "PKMYT1": {"target": "PKMYT1 (Homo sapiens, UniProt Q99640)", "procedure": "as §1"}, "KIT(L576P)": {"target": "KIT(L576P) (Homo sapiens, UniProt P10721, L576P)", "procedure": "as §1"}, "DAPK3": {"target": "DAPK3 (Homo sapiens, UniProt O43293)", "procedure": "as §1"}, "GRK2": {"target": "GRK2 (Homo sapiens, UniProt P25098)", "procedure": "as §1"}, "[1]": {"target": "T3, TYK2(JH2domain-pseudokinase) (Homo sapiens, UniProt P29597)", "T3 construct": "JH2domain-pseudokinase", "procedure": "as §1"}, "ERK4": {"target": "T4, ERK4 (Homo sapiens, UniProt P31152)", "T4 construct": "gene MAPK4", "procedure": "as §1"}, "DLK": {"target": "T5, DLK (Homo sapiens, UniProt Q12852)", "T5 construct": "gene MAP3K12", "procedure": "as §1"}, "MAP3K2": {"target": "MAP3K2 (Homo sapiens, UniProt Q9Y2U5)", "procedure": "as §1"}, "BMPR2": {"target": "BMPR2 (Homo sapiens, UniProt Q13873)", "procedure": "as §1"}, "TLK2": {"target": "TLK2 (Homo sapiens, UniProt Q86UE8)", "sequence (Q86UE8 whole entry)": "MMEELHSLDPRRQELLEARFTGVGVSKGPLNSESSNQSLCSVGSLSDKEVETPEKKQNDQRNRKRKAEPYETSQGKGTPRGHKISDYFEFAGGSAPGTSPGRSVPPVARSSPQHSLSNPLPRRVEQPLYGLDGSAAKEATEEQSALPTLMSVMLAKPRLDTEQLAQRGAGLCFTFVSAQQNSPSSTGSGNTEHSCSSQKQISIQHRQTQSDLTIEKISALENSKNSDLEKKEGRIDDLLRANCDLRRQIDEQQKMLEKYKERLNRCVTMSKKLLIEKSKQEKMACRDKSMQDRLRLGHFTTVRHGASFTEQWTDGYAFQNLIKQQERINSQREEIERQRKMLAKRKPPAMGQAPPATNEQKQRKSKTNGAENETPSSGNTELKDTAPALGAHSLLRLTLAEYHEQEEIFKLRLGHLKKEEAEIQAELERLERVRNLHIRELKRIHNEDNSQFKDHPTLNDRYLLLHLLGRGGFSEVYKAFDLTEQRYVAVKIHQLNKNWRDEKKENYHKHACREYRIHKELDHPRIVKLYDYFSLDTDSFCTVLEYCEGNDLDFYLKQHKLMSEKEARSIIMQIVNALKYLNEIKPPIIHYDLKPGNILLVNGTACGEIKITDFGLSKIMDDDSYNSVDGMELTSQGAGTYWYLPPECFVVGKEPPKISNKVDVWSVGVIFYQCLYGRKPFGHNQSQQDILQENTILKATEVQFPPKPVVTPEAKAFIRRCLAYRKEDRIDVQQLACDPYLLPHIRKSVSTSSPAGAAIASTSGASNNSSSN", "procedure": "as §1"}, "p38-gamma": {"target": "T6, p38-gamma (Homo sapiens, UniProt P53778)", "T6 construct": "gene MAPK12", "procedure": "as §1"}, "PAK4": {"target": "PAK4 (Homo sapiens, UniProt O96013)", "sequence (O96013 whole entry)": "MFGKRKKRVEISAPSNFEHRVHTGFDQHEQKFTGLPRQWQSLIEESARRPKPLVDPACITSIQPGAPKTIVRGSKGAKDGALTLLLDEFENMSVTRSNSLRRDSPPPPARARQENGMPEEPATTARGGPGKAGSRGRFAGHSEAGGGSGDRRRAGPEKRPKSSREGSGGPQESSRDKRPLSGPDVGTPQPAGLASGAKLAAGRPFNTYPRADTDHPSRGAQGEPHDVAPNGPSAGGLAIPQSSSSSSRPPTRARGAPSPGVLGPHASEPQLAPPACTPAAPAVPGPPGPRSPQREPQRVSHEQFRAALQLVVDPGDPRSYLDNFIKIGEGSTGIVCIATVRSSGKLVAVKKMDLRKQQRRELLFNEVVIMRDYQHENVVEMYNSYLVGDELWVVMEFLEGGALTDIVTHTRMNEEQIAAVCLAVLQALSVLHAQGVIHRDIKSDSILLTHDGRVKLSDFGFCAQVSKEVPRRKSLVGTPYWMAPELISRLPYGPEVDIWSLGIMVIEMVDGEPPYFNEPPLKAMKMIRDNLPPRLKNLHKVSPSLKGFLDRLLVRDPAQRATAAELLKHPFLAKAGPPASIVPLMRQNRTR", "procedure": "as §1"}, "EGFR(L747-T751del,Sins)": {"target": "EGFR(L747-T751del,Sins) (Homo sapiens, UniProt P00533, DEL747-750/T751S)", "sequence (P00533 with tags, fused parts or gaps DEL747-750/T751S)": "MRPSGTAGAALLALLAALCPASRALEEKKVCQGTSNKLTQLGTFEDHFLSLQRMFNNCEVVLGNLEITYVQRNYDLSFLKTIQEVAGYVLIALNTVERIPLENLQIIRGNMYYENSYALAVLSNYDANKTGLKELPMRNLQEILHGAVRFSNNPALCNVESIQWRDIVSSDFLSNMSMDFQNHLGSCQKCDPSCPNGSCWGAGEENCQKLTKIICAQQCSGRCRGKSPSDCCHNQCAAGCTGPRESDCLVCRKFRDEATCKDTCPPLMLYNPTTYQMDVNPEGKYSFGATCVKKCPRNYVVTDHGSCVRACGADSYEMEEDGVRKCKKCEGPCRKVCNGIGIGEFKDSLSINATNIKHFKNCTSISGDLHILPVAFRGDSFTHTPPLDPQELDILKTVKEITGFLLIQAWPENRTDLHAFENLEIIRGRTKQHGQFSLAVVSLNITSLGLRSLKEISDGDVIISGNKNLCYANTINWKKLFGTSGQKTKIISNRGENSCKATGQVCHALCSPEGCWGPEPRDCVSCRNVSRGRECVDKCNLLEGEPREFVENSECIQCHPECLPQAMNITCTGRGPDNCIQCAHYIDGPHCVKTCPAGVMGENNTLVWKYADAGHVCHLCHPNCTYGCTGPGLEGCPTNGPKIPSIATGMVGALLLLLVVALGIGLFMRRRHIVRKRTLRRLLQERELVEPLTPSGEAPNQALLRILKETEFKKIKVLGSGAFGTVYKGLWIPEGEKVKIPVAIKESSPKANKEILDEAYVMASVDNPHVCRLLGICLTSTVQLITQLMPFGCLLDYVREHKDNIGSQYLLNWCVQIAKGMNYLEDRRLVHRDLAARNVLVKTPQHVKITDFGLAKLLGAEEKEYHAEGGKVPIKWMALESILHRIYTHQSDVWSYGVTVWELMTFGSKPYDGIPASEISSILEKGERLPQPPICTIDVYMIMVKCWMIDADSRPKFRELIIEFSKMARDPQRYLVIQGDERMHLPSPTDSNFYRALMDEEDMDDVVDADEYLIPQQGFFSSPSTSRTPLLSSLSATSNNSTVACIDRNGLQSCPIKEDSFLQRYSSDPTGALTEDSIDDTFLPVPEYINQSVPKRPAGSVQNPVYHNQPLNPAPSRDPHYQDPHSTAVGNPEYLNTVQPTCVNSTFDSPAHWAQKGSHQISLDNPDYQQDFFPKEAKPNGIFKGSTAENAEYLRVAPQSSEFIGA", "procedure": "as §1"}, "MEK4": {"target": "T7, MEK4 (Homo sapiens, UniProt P45985)", "T7 construct": "gene MAP2K4", "procedure": "as §1"}, "[2]": {"target": "EGFR(L747-E749del, A750P) (Homo sapiens, UniProt P00533, A750P/DEL747-749)", "procedure": "as §1"}},
  "data": [
    {"compound": "CNS(=O)(=O)c1ccc(N(C)C)c(Nc2ncnc3cc(OC)c(OC)cc23)c1", "note": "[compound 7, 3-((6,7-dimethoxyquinazolin-4-yl)amino)-4-(dimethylamino)-N-methylbenzenesulfonamide]", "values": [
      {"measurement": "inhibition at 1 µM", "setting": "CDK2", "result": 0, "unit": "%"},
      {"measurement": "inhibition at 1 µM", "setting": "ARK5", "result": 0, "unit": "%"},
      {"measurement": "inhibition at 1 µM", "setting": "MAP4K3", "result": 0, "unit": "%"},
      {"measurement": "inhibition at 1 µM", "setting": "MAP4K2", "result": 41, "unit": "%"},
      {"measurement": "inhibition at 1 µM", "setting": "MAP3K15", "result": 4, "unit": "%"},
      {"measurement": "inhibition at 1 µM", "setting": "S6K1", "result": 23, "unit": "%"},
      {"measurement": "inhibition at 1 µM", "setting": "PRKCQ", "result": 28, "unit": "%"},
      {"measurement": "inhibition at 1 µM", "setting": "CSNK1A1L", "result": 0, "unit": "%"},
      {"measurement": "inhibition at 1 µM", "setting": "CDK8", "result": 0, "unit": "%"},
      {"measurement": "inhibition at 1 µM", "setting": "PKMYT1", "result": 0, "unit": "%"},
      {"measurement": "inhibition at 1 µM", "setting": "KIT(L576P)", "result": 49, "unit": "%"},
      {"measurement": "inhibition at 1 µM", "setting": "DAPK3", "result": 9, "unit": "%"},
      {"measurement": "inhibition at 1 µM", "setting": "GRK2", "result": 65, "unit": "%"},
      {"measurement": "inhibition at 1 µM", "setting": "[1]", "result": 0, "unit": "%"},
      {"measurement": "inhibition at 1 µM", "setting": "ERK4", "result": 0, "unit": "%"},
      {"measurement": "inhibition at 1 µM", "setting": "DLK", "result": 21, "unit": "%"},
      {"measurement": "inhibition at 1 µM", "setting": "MAP3K2", "result": 12, "unit": "%"},
      {"measurement": "inhibition at 1 µM", "setting": "BMPR2", "result": 0, "unit": "%"},
      {"measurement": "inhibition at 1 µM", "setting": "TLK2", "result": 0, "unit": "%"},
      {"measurement": "inhibition at 1 µM", "setting": "p38-gamma", "result": 0, "unit": "%"},
      {"measurement": "inhibition at 1 µM", "setting": "PAK4", "result": 0, "unit": "%"},
      {"measurement": "inhibition at 1 µM", "setting": "EGFR(L747-T751del,Sins)", "result": 0, "unit": "%"},
      {"measurement": "inhibition at 1 µM", "setting": "MEK4", "result": 37, "unit": "%"},
      {"measurement": "inhibition at 1 µM", "setting": "[2]", "result": 0, "unit": "%"}
    ]}
  ]
}
